Source: ChEMBL document CHEMBL5252609, “Design, synthesis, and antitumor evaluation of morpholine substituted bisnaphthalimides as DNA targeting agents” (Bioorg Med Chem Lett, 2023)
Active and inactive are the calls of the source. The calls are words filed in the database; no cut-off is given here.

Assays:
T-24 = test: Antiproliferative activity against human T24 cells assessed as cell growth inhibition by MTT assay; type: functional, cell-based
MGC-803 [1] = test: Antiproliferative activity against human MGC-803 cells assessed as cell growth inhibition by MTT assay; type: functional, cell-based
CNE-2 = test: Antiproliferative activity against human CNE-2 cells assessed as cell growth inhibition by MTT assay; type: functional, cell-based
A2780 = test: Antiproliferative activity against human A2780 cells assessed as cell growth inhibition by MTT assay; type: functional, cell-based
MGC-803 [2] = test: Antitumor activity against human MGC-803 cells xenografted in nude mouse assessed as reduction in tumor volume growth rate at 4 mg/kg, ip administrated every other day for 21 days relative to control; type: functional; parameters: scale not given: the % may be the effect or the level left; conditions: time 21 day
MGC-803 [3] = test: Antitumor activity against human MGC-803 cells xenografted in nude mouse assessed as reduction in tumor weight at 4 mg/kg, ip administrated every other day for 21 days relative to control; type: functional; parameters: scale not given: the % may be the effect or the level left; conditions: time 21 day
MGC-803 [4] = test: Toxicity in nude mouse xenografted with human MGC-803 cells assessed as morphological changes in liver at 8 mg/kg, ip administrated every other day for 21 days; type: functional, organism-based; conditions: time 21.0 day
Homo sapiens [5] = organism: Homo sapiens; test: Binding affinity to pBR322 DNA (unknown origin) assessed as DNA intercalation at 20 to 100 uM by electrophoresis assay; conditions: dose 20-100 µM
Homo sapiens [6] = organism: Homo sapiens; test: Binding affinity to pBR322 DNA (unknown origin) assessed as induced retardation of DNA migration at 20 to 100 uM by gel electrophoresis assay; conditions: dose 20-100 µM
[7] = target: T1, DNA topoisomerase 1 (Homo sapiens) (UniProt P11387); test: Inhibition of human DNA topoisomerase 1 assessed as reduction in pBR322 DNA relaxation upto 100 uM by gel electrophoresis method
T1 sequence (whole entry): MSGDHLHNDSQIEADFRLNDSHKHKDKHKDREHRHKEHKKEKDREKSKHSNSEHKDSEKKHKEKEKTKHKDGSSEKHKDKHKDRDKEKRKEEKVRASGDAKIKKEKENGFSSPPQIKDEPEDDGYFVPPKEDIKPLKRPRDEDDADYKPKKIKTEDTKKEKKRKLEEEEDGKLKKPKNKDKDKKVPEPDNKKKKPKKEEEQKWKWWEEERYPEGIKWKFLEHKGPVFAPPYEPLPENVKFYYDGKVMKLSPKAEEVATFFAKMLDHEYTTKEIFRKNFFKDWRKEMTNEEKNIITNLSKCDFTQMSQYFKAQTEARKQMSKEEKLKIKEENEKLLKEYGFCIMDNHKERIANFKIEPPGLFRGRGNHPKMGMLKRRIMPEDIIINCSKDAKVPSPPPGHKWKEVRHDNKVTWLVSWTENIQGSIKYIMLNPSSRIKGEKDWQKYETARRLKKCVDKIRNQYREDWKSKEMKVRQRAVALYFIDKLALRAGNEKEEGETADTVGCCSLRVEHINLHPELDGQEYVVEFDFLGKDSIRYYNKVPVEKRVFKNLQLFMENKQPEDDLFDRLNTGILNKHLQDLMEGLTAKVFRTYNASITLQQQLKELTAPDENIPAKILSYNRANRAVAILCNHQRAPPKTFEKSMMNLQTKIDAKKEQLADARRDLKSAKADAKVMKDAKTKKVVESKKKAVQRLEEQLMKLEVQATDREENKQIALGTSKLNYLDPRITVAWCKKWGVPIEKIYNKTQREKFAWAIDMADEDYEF

| SMILES | IC50 (MGC-803 [1]) [µM] | IC50 (A2780) [µM] | Activity (Homo sapiens [5]) | Activity (Homo sapiens [6]) | inhibition [7] | IC50 (T-24) [µM] | IC50 (CNE-2) [µM] | Activity (MGC-803 [2]) [%] | Activity (MGC-803 [3]) [%] | Activity (MGC-803 [4]) |
| --- | --- | --- | --- | --- | --- | --- | --- | --- | --- | --- |
| O=C1c2cccc3c(N4CCC(N5CCCCC5)CC4)c([N+](=O)[O-])cc(c23)C(=O)N1CCNCCN1C(=O)c2cccc3c(N4CCC(N5CCCCC5)CC4)c([N+](=O)[O-])cc(c23)C1=O | > 50 | > 50 | – | – | – | 14.8 | 9.25 | – | – | – |
| CC(C)(C)OC(=O)N1CCN(c2c([N+](=O)[O-])cc3c4c(cccc24)C(=O)N(CCNCCN2C(=O)c4cccc5c(N6CCN(C(=O)OC(C)(C)C)CC6)c([N+](=O)[O-])cc(c45)C2=O)C3=O)CC1 | > 50 | > 50 | – | – | – | > 50 | > 50 | – | – | – |
| CN(C)CCN1C(=O)c2cccc3cc([N+](=O)[O-])cc(c23)C1=O [MITONAFIDE] | 3.32 | 5.22 | – | – | – | 3.25 | 3.42 | 54.2 | 34.2 | Toxic |
| O=C1c2cccc3c(N4CCCCC4)c([N+](=O)[O-])cc(c23)C(=O)N1CCNCCN1C(=O)c2cccc3c(N4CCCCC4)c([N+](=O)[O-])cc(c23)C1=O | > 50 | > 50 | – | – | – | > 50 | > 50 | – | – | – |
| CN(C)CCN1C(=O)c2cccc3cc(N)cc(c23)C1=O [AMONAFIDE] | 5.25 | 11.7 | – | – | – | 7.23 | 8.65 | – | – | – |

More lines, in order of falling IC50 (MGC-803 [1]), values ahead:

| IC50 (MGC-803 [1]) [µM] | IC50 (A2780) [µM] | Activity (Homo sapiens [5]) | Activity (Homo sapiens [6]) | inhibition [7] | SMILES | IC50 (T-24) [µM] | IC50 (CNE-2) [µM] | Activity (MGC-803 [2]) [%] | Activity (MGC-803 [3]) [%] | Activity (MGC-803 [4]) |
| --- | --- | --- | --- | --- | --- | --- | --- | --- | --- | --- |
| 23.1 | 28.4 | – | – | – | O=C1c2cccc3c(N4CCOCC4)c([N+](=O)[O-])cc(c23)C(=O)N1CCc1ccc2c(c1)OCO2 | 23.6 | > 50 | – | – | – |
| 14.6 | 2.79 | inactive | inactive | inactive | O=C1c2cccc3cc([N+](=O)[O-])cc(c23)C(=O)N1CCNCCN1C(=O)c2cccc3cc([N+](=O)[O-])cc(c23)C1=O | 3.45 | 4.51 | – | – | – |
| 11.8 | 22.8 | – | – | – | O=C1c2cccc3c(N4CCOCC4)c([N+](=O)[O-])cc(c23)C(=O)N1CCO | 9.34 | 16.4 | – | – | – |
| 2.05 | 0.42 | Active | Active | inactive | CN1CCN(c2c([N+](=O)[O-])cc3c4c(cccc24)C(=O)N(CCNCCN2C(=O)c4cccc5c(N6CCN(C)CC6)c([N+](=O)[O-])cc(c45)C2=O)C3=O)CC1 | 0.65 | 0.34 | – | – | – |
